Counter-ions that a name gives are not always drawn. Bounds are passed on as bounds.

One assay concerns the target T1, ALK enzyme (Homo sapiens, UniProt Q9UM73).
T1 construct: purchased Invitrogen PV4185
Kind of assay: ALK enzymatic activity assay 1. Format: biochemical. Here is the method:
ALK Enzymatic Activity Assay 1
Compounds were added at a final concentration of 1% DMSO in half-log dilutions, starting at 20 μM final concentration. The reactions were initiated by the addition of 10 μL of peptide/ATP mix to 10 μL enzyme and 2 μL of compound in 384-well plate. […] On the 12-sipper chip, substrate and phosphorylated product were separated with an upstream voltage of −2650 V, a downstream voltage of −500 V, and a screen pressure of −1.5 psi. The relative peak heights of substrate and product were measured and ratios were calculated using HTS Well Analyzer Software version 5.2.43 from the manufacturer.

Assay [1] deals with T2, human recombinant wild-type ALK kinase domain (amino acids 1093-1411) (Homo sapiens, UniProt Q9UM73).
T2 construct: ALK kinase domain (amino acids 1093-1411); made in house
In words: ALK enzyme assay 2 (microfluidic mobility shift assay).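 Also: kinase reaction run 1 h at room temperature, conversion quantified by electrophoretic separation of fluorescent peptide substrate from phosphorylated product, about 15-20% turnover without inhibitor.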 Type of assay: biochemical.
Experimental: The reactions were incubated for 1 h at room temperature, stopped by the addition of 0.1 M EDTA, pH 8, and the extent of reactions (˜15-20% conversion with no inhibitor) was determined after electrophoretic separation of the fluorescently labeled peptide substrate and phosphorylated product on an LabChip EZ Reader II (Caliper Life Sciences, Hopkinton, Mass.).

A further assay has as its target T3, cMet enzyme (Homo sapiens, UniProt P08581).
T3 construct: RTC Lot#032006
Kind of assay: cMet enzymatic activity assay. Type of assay: biochemical. The settings on record: purified cMet enzyme 7.5 nM, ATP 17 μM (Km). The protocol:
cMet Enzymatic Activity Assay
Compounds were added at a final concentration of 2% DMSO in half-log dilutions, starting at 20 μM final concentration. The reactions were initiated by addition of 10 μL of peptide/ATP mix to 10 μL enzyme and 5 μL of compound in 384-well plate. […] Substrate and phosphorylated product were separated with an upstream voltage of −2650 V, a downstream voltage of −500V, and a screen pressure of −1.5 psi. The relative peak heights of substrate and product were measured and ratios were calculated using HTS Well Analyzer Software version 5.2.43 from the manufacturer.

Assay [2] deals with EML4-ALK wt v1 in NIH-3T3 cells (Homo sapiens, UniProt Q9UM73).
Chain of EML4-ALK wt v1 in NIH-3T3 cells (Q9UM73 with tags, fused parts or gaps): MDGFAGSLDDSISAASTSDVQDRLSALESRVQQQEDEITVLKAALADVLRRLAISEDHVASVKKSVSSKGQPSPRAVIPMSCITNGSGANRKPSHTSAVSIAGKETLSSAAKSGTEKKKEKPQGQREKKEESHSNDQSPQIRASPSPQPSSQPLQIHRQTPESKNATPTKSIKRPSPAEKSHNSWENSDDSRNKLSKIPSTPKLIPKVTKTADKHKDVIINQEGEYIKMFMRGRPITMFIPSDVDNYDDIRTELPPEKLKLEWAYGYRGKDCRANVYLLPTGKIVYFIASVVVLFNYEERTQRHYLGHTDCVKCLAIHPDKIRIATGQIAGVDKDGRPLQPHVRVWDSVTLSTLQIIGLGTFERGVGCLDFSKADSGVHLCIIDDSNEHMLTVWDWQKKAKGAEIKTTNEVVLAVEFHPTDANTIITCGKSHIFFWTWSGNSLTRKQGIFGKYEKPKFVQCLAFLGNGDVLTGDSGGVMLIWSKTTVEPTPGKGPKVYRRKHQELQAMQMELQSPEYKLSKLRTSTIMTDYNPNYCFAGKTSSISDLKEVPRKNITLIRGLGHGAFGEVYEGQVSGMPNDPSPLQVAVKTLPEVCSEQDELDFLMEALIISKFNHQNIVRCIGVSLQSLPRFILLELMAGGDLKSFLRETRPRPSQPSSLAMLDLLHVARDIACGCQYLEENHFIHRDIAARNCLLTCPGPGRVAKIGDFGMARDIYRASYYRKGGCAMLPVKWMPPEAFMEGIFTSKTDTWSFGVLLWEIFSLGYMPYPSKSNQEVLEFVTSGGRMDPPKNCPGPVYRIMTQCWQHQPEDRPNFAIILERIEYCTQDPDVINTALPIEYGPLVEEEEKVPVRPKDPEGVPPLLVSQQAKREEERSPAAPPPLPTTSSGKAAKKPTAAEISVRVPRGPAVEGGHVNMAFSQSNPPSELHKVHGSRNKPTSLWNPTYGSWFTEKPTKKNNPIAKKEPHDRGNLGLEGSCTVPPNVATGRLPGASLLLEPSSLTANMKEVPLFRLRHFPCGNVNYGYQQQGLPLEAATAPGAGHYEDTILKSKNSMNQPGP

T1 sequence (Q9UM73 19-1620): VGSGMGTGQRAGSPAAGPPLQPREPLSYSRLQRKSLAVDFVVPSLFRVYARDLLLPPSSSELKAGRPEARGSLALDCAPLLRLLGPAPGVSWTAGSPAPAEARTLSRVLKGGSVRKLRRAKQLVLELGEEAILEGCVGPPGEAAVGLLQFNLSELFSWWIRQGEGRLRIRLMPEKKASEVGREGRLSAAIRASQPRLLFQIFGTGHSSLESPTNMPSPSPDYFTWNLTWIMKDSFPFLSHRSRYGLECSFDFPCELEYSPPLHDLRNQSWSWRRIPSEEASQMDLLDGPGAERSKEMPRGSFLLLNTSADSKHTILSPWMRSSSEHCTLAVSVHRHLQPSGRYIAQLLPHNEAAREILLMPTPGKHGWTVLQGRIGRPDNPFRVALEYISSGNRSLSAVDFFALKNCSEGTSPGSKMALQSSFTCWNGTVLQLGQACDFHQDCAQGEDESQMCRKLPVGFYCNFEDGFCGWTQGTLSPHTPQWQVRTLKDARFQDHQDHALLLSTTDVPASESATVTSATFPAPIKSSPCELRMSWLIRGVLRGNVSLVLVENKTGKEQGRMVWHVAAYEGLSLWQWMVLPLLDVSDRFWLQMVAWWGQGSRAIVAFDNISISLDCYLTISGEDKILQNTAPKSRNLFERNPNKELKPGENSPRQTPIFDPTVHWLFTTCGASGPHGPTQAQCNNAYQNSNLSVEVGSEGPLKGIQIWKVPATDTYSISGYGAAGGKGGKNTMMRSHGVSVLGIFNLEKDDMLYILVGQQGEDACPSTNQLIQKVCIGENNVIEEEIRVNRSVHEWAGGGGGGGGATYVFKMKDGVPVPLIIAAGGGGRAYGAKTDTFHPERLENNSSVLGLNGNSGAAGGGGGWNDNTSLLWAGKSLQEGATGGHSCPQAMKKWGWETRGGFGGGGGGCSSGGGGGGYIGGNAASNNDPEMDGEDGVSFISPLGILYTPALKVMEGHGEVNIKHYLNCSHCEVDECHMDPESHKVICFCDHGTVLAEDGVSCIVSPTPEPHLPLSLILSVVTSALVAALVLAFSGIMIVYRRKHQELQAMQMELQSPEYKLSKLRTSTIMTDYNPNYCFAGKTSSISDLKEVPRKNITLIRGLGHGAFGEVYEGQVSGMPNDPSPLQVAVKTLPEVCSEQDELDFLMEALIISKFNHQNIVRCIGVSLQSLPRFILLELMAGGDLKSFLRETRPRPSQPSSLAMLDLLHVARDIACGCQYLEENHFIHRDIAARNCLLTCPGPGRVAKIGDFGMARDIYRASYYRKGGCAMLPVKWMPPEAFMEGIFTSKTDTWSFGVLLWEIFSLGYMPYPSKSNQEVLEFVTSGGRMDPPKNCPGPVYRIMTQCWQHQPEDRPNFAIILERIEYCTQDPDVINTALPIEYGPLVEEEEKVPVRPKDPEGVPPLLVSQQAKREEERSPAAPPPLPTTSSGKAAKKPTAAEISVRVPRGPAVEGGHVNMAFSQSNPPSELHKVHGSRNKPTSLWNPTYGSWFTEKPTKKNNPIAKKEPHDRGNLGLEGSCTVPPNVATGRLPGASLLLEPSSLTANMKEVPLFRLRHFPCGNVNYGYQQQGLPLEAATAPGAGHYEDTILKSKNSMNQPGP
T2 sequence (Q9UM73 1093-1411): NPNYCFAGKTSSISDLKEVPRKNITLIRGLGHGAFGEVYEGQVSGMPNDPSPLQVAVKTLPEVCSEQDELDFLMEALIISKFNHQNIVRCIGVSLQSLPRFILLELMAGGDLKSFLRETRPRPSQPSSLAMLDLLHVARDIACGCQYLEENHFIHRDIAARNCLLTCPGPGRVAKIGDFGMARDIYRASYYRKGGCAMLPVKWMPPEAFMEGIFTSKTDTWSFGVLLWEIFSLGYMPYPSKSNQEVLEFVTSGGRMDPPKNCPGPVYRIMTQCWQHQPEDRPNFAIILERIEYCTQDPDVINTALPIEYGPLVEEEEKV
T3 sequence (P08581 25-1390): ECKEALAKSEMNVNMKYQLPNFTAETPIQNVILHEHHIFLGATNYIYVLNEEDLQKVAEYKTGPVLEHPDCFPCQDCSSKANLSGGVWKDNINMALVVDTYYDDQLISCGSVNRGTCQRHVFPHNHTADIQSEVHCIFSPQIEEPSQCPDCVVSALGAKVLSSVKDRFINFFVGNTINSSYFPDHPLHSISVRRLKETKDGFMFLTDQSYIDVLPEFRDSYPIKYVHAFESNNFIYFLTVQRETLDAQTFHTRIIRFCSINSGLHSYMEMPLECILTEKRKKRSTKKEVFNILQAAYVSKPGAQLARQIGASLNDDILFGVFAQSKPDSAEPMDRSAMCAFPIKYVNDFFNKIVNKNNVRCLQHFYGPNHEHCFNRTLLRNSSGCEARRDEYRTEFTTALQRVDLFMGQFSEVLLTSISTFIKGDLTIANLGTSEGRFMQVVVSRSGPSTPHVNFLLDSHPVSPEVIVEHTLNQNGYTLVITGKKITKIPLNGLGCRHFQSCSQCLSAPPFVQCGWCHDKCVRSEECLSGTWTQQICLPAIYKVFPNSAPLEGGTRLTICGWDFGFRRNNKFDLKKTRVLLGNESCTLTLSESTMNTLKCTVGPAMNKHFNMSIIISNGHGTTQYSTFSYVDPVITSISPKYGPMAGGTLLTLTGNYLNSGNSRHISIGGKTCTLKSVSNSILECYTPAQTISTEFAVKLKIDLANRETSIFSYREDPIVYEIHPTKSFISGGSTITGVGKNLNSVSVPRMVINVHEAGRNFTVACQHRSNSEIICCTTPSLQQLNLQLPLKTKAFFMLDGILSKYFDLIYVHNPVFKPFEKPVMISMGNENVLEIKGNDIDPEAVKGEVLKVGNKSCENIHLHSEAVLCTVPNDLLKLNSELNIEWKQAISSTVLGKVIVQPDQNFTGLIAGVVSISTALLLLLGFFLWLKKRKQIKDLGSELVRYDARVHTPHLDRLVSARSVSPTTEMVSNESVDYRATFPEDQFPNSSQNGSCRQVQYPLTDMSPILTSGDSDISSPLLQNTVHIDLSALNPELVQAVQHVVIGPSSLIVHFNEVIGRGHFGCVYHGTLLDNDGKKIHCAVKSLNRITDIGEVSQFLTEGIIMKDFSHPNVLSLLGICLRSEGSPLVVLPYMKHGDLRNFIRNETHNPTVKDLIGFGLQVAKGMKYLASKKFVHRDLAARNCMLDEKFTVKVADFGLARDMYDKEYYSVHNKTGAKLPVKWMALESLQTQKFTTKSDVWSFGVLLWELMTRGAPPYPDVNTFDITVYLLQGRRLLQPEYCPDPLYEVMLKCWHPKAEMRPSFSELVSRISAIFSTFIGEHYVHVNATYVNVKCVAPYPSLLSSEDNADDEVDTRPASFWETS

As for `CC(Oc1cc(-c2ccnn2C)cnc1N)c1cc(F)ccc1C#N` (single isomer, unassigned) [Example 44], the half-inhibitory concentration (IC50) – broadly, the concentration at which inhibition is half-maximal – against ALK enzyme was found to be 57 nM; on cMet enzyme, 6480 nM; in assay [2] it was 411 nM. In assay [1], the Ki (usually a dissociation constant, usually derived from enzyme kinetics or from competition with a known ligand) was 6.9 nM.
The matching figures for `C=Cn1nnc(C)c1-c1cnc(N)c(OC(C)c2cc(F)ccc2OC)c1` (stereo not shown) [Example 1, 3-[1-(5-Fluoro-2-methoxyphenyl)ethoxy]-5-(4-methyl-1-vinyl-1H-1,2,3-triazol-5-yl)pyridin-2-amine]: 61.4 nM, more than 18800 nM, 144 nM and 2.9 nM.
The matching figures for `COc1ccc(F)cc1C(C)Oc1cc(-c2cnnn2CCO)cnc1N` (stereo not shown) [Example 2, 2-(5-{6-amino-5-[1-(5-fluoro-2-methoxyphenyl)ethoxy]-pyridin-3-yl}-1H-1,2,3-triazol-1-yl)ethanol]: 135 nM, more than 20000 nM, more than 1000 nM and 220 nM.
As for `COc1ccc(F)cc1C(C)Oc1cc(-c2cncc(S(C)(=O)=O)c2)cnc1N` (stereo not shown) [Example 4, 5-[1-(5-fluoro-2-methoxyphenyl)ethoxy]-5′-(methylsulfonyl)-3,3′-bipyridin-6-amine], the IC50 turned out to be 51.7 nM against ALK enzyme, 7610 nM against cMet enzyme and 72.4 nM in assay [2]. Also, the Ki in assay [1] was determined as 1.93 nM.
In the case of `COc1ccc(F)cc1C(C)Oc1cc(-c2cnc(N)nc2C)cnc1N` (stereo not shown) [Example 5, 5-{6-amino-5-[1-(5-fluoro-2-methoxyphenyl)ethoxy]-pyridin-3-yl}-4-methylpyrimidin-2-amine], the half-maximal inhibitory concentration (IC50) against ALK enzyme came out at 48 nM; against cMet enzyme it was 13000 nM.
Take `COc1ccc(F)cc1C(C)Oc1cc(-c2c(C)n[nH]c2C)cnc1N` (stereo not shown) [Example 6, 5-(3,5-dimethyl-1H-pyrazol-4-yl)-3-[1-(5-fluoro-2-methoxyphenyl)ethoxy]-pyridin-2-amine]: the IC50 at ALK enzyme turned out to be 33.6 nM; against cMet enzyme, 6740 nM. For the same compound, the inhibition constant Ki in assay [1] was 0.62 nM.
`COc1ccc(F)cc1C(C)Oc1cc(-c2c(C)nn(C)c2C)cnc1N` (stereo not shown) [Example 7, 3-[1-(5-fluoro-2-methoxyphenyl)ethoxy]-5-(1,3,5-trimethyl-1H-pyrazol-4-yl)pyridin-2-amine]: the half-maximal inhibitory concentration (IC50) worked out at 44.9 nM at ALK enzyme, 10200 nM against cMet enzyme and 33 nM in assay [2]. Besides, in assay [1], the inhibition constant Ki was 0.536 nM.
As for `COc1ccc(F)cc1C(C)Oc1cc(-c2cccnc2O)cnc1N` (stereo not shown) [Example 8, 6′-amino-5′-[1-(5-fluoro-2-methoxyphenyl)ethoxy]-3,3′-bipyridin-2-ol], the IC50 came out at 98.2 nM at ALK enzyme and 17400 nM against cMet enzyme.
Take `COc1ccc(F)cc1C(C)Oc1cc(-c2c(C)nnn2C)cnc1N` (stereo not shown) [Example 10, 5-(1,4-dimethyl-1H-1,2,3-triazol-5-yl)-3-[1-(5-fluoro-2-methoxyphenyl)ethoxy]-pyridin-2-amine]: the IC50 against ALK enzyme was 86 nM; against cMet enzyme, more than 20000 nM; in assay [2], 361 nM.
In the case of `COc1ccc(F)cc1C(C)Oc1cc(-c2ccnn2CCO)cnc1N` (stereo not shown) [Example 11, 2-(5-{6-amino-5-[1-(5-fluoro-2-methoxyphenyl)ethoxy]-pyridin-3-yl}-1H-pyrazol-1-yl)ethanol], the IC50 on ALK enzyme is 52.2 nM; at cMet enzyme, more than 20000 nM; in assay [2], 245 nM. The Ki in assay [1] worked out at 6.3 nM.
On to `COc1ccc(F)cc1C(C)Oc1cc(-c2cnn(C)c2CO)cnc1N` (stereo not shown) [Example 12, (4-{6-amino-5-[1-(5-fluoro-2-methoxyphenyl)ethoxy]-pyridin-3-yl}-1-methyl-1H-pyrazol-5-yl)methanol], for which the IC50 against ALK enzyme came out at 70.6 nM; on cMet enzyme it was 8420 nM; in assay [2], 194 nM. Besides, in assay [1], the Ki was 2.1 nM.
As to `COc1ccc(F)cc1C(C)Oc1cc(-c2ncsc2CO)cnc1N` (stereo not shown) [Example 13, (4-{6-amino-5-[1-(5-fluoro-2-methoxyphenyl)ethoxy]-pyridin-3-yl}-1,3-thiazol-5-yl)methanol], the concentration for half-maximal inhibition (IC50) on ALK enzyme was 132 nM; at cMet enzyme it was more than 20000 nM; in assay [2] it was 591 nM. The inhibition constant Ki in assay [1] amounted to 5.5 nM.
Consider `COc1ccc(F)cc1C(C)Oc1cc(-c2scnc2CO)cnc1N` (stereo not shown) [Example 14, (5-{6-amino-5-[1-(5-fluoro-2-methoxyphenyl)ethoxy]-pyridin-3-yl}-1,3-thiazol-4-yl)methanol], for which the IC50 against ALK enzyme came to 74.8 nM; on cMet enzyme it was 8290 nM.
In the case of `COc1ccc(F)cc1C(C)Oc1cc(-c2cccn(C)c2=O)cnc1N` (stereo not shown) [Example 15, 6′-amino-5′-[1-(5-fluoro-2-methoxyphenyl)ethoxy]-1-methyl-3,3′-bipyridin-2(1H)-one], the figures for the 50% inhibitory concentration (IC50) (at ALK enzyme; on cMet enzyme; in assay [2]) were 177 nM, more than 20000 nM and 904 nM, respectively. Besides, the Ki in assay [1] was determined as 16 nM.
The corresponding values for `COc1ccc(F)cc1C(C)Oc1cc(-c2c(OC)cnn2C)cnc1N` (stereo not shown) [Example 16, 3-[1-(5-fluoro-2-methoxyphenyl)ethoxy]-5-(4-methoxy-1-methyl-1H-pyrazol-5-yl)pyridin-2-amine] are 38.1 nM, 11200 nM, 123 nM and 1.3 nM.
The corresponding values for `COc1ccc(F)cc1C(C)Oc1cc(-c2cc(Cl)nnc2N)cnc1N` (stereo not shown) [Example 17, 4-{6-amino-5-[1-(5-fluoro-2-methoxyphenyl)ethoxy]-pyridin-3-yl}-6-chloropyridazin-3-amine] are 133 nM, 13200 nM, 672 nM and 11 nM.
Take `COc1ccc(F)cc1C(C)Oc1cc(-c2c(CO)cnn2C)cnc1N` (stereo not shown) [Example 18, (5-{6-amino-5-[1-(5-fluoro-2-methoxyphenyl)ethoxy]pyridin-3-yl}-1-methyl-1H-pyrazol-4-yl)methanol]: the IC50 against ALK enzyme was 92.6 nM; against cMet enzyme, more than 20000 nM; in assay [2] it was 421 nM. The inhibition constant Ki in assay [1] stood at 8.1 nM.
As for `COc1ccc(F)cc1C(C)Oc1cc(-c2cccnc2OCCO)cnc1N` (stereo not shown) [Example 19, 2-{6′-Amino-5′-[1-(5-fluoro-2-methoxy-phenyl)-ethoxy]-[3,3]bipyridinyl-2-yloxy}-ethanol], the results for the concentration for half-maximal inhibition (IC50) (at ALK enzyme; at cMet enzyme; in assay [2]) were 78.7 nM, more than 19700 nM and 53.5 nM, respectively. In assay [1], the Ki stood at 1.05 nM.
Turning to `COc1ccc(F)cc1[C@@H](C)Oc1cc(-c2cncn2C)cnc1N` [Example 22, 3-[(1R)-1-(5-fluoro-2-methoxyphenyl)-ethoxy]-5-(1-methyl-1H-imidazol-5-yl)pyridin-2-amine], the 50% inhibitory concentration (IC50) came to 38 nM against ALK enzyme, 3680 nM against cMet enzyme and 47.5 nM in assay [2].
As to `COc1ccc(F)cc1[C@@H](C)Oc1cc(-c2c(C)ncn2C)cnc1N` [Example 25, 5-(1,4-dimethyl-1H-imidazol-5-yl)-3-[(1R)-1-(5-fluoro-2-methoxyphenyl)-ethoxy]pyridin-2-amine], the figures for the IC50 at ALK enzyme and against cMet enzyme were 38.2 nM and 13200 nM, respectively.
On to `C[C@@H](Oc1cc(-c2scnc2CO)cnc1N)c1cc(F)ccc1-n1nccn1` [Example 28], for which the IC50 at ALK enzyme worked out at 63.5 nM; on cMet enzyme, 13000 nM.
On to `C[C@@H](Oc1cc(-c2c(F)cnn2C)cnc1N)c1cc(F)ccc1-n1nccn1` [Example 29], for which the results for the IC50 (against ALK enzyme; on cMet enzyme; in assay [2]) were 30 nM, 7480 nM and 151 nM, respectively.
On cMet enzyme, `Cc1n[nH]cc1-c1cnc(N)c(OC(C)c2cc(F)ccc2-n2nccn2)c1` (stereo not shown) [Example 39, 3-{1-[5-fluoro-2-(2H-1,2,3-triazol-2-yl)phenyl]-ethoxy}-5-(3-methyl-1H-pyrazol-4-yl)pyridin-2-amine] came in with an IC50 of 4500 nM.
Same read-out and setting: to `Cc1n[nH]cc1-c1cnc(N)c(O[C@H](C)c2cc(F)ccc2C#N)c1` [Example 40, 2-[(1R)-1-{[2-amino-5-(3-methyl-1H-pyrazol-4-yl)pyridin-3-yl]oxy}ethyl]-4-fluorobenzonitrile] belongs 1350 nM.
For the compound `COc1ccc(F)cc1C(C)Oc1cc(-c2ccnn2C)cnc1N` (stereo not shown) [Example 43, 3-[1-(5-fluoro-2-methoxyphenyl)-ethoxy]-5-(1-methyl-1H-pyrazol-5-yl)pyridin-2-amine monohydrochloride], the IC50 was 34.9 nM against ALK enzyme and 5090 nM on cMet enzyme. In addition, in assay [1], the Ki was less than 0.249 nM.
`COc1ncccc1-c1cnc(N)c(OC(C)c2cc(F)ccc2-n2nccn2)c1` (stereo not shown) [Example 46, 5-{1-[5-fluoro-2-(2H-1,2,3-triazol-2-yl)phenyl]-ethoxy}-2′-methoxy-3,3′-bipyridin-6-amine] showed a concentration for half-maximal inhibition (IC50) on cMet enzyme of 6850 nM.
As for `Cc1n[nH]c(C)c1-c1cnc(N)c(OC(C)c2cc(F)ccc2-n2nccn2)c1` (stereo not shown) [Example 49, 5-(3,5-dimethyl-1H-pyrazol-4-yl)-3-{1-[5-fluoro-2-(2H-1,2,3-triazol-2-yl)phenyl]-ethoxy}pyridin-2-amine], the figures for the IC50 on ALK enzyme and on cMet enzyme were 114 nM and 13100 nM, respectively.

For the origin of these results see patent publication US8916593B2, “Alkoxy-substituted 2-aminopyridines as ALK inhibitors” (Pfizer Inc., priority 2010, dated 2014).
